The source of these data is PMC8472154 (Molecules, 2021).

What all share (assay): Biofilm formation inhibition (crystal violet)
Holding throughout (settings): EO at 2.5, 5 and 10 μL/mL; chlorohexidine 0.2% v/v; 24 h; versus control culture; Figure 5

Assay [1] concerns E. coli DSM 1077 biofilm. The class given is cell-based, Escherichia coli. Here is the method: (§1) The Gram negative bacterium Escherichia coli DSM 1077, and the Gram positive Staphylococcus aureus ATCC 6538 and the methicillin-resistant S. aureus 15 (MRSA 15) were used in the present study. The bacterial strains were recovered from −80 °C in the culture medium Brain Heart Infusion (BHI, Oxoid, Basingstock, UK), when required agar (VWR, Radnor, Philadelphia, PA, USA) at 1.5% w/v.
(§2) The inhibition of biofilm formation was done using the crystal violet assay. Briefly, 150 µL of an overnight culture prepared as previously mentioned was centrifuged for 10 min at 4 °C. For the preparation of the bacterial suspension, 150 µL of BHI medium supplemented with EOs at the 2.5 µL/mL, 5 µL/mL and 10 µL/mL, chlorhexidine 0.2% (v/v), n-propanol (20%), was added to the centrifuged bacterial culture. Each well containing 180 µL of BHI supplemented with EOs at the appropriate concentration was inoculated with 20 µL of the previous bacterial suspension. The cultures with no EO and in the presence of chlorohexidine (0.2 %, v/v), were used as control. The culture was left to adhere and form a biofilm for 24 h. After this incubation time, non-adherent cells were eliminated and the wells were washed twice with PBS; then, the microplate was left to dry for 15–30 min. […] The absorbance was measured at 595 nm after 15–20 min incubation.

Assay [2] deals with MRSA 15 biofilm. The class given is cell-based, Staphylococcus aureus. Here is the method:
as §1, §2

For assay [3], the system named is S. aureus ATCC 6538 biofilm. The class given is cell-based, Staphylococcus aureus. As to the method:
as §1, §2

For `[H]/N=C(\N/C(=N/[H])NCCCCCCNC(=N)NC(=N)Nc1ccc(Cl)cc1)Nc1ccc(Cl)cc1` [chlorohexidine], the “biofilm formation of E. coli DSM 1077” value in assay [1] is on record as “reduced biofilm formation”. In addition, in assay [2], the “biofilm formation of MRSA 15” value is reported as “reduced biofilm formation”. Further, in assay [3], the “biofilm formation of S. aureus ATCC 6538” value was “induced the biofilm formation”.
